From paper PMC9814544 (Communications Chemistry, 2020)
Where “and” joins values, the source holds several entries; their conditions need not be identical. Equal entries are not always repeated. Where two headings read alike, the source gives them in different places.

Experiments:
human LOX-1 receptor = target: T1, human LOX-1 receptor (Homo sapiens, UniProt P78380); experiment: LOX-1 cellular oxLDL uptake assay (AF594-oxLDL, CHO-Trex-hLOX1); format: cell-based
T1 construct: the cellular HTS screen was done using full-length LOX-1 and human oxLDL; expressed in transfected cells; host or cells: CHO-K1 T-REx (CHO-Trex-hLOX1 clone), vector pT-Rex-EXP-30-hLOX
Description: To identify small molecule inhibitors of LOX-1 mediated oxLDL uptake we developed a cellular high throughput screening (HTS) assay. Small molecule compounds were screened for their ability to block the uptake of AlexaFluor594 (AF594)-labeled human oxLDL into a CHO-K1 cell line with inducible expression of the human LOX-1 receptor. This readout was visualized and images were quantified by fluorescence microscopy (Fig. 1a). As positive controls, cells without induction of LOX-1 as well as a blocking anti-LOX-1 antibody[29] was used (Fig. 1b). More than one million different compounds were screened. Lead-like compounds (molecular weight above 270 Da) were tested at a concentration of 5 µg/ml, whereas a fragment subset (molecular weight below 270 Da) was tested at a tenfold higher concentration to ensure detection of more weakly active but ligand-efficient fragment-like compounds. Employing a hit criterion of lower than 50% of control, a hit rate of 2.8% was observed (Supplementary Fig. 1). These hits were further confirmed by performing two independent assay runs with fresh compound samples, resulting in a confirmation rate of 80% and a confirmed hit rate of 2.2% (Supplementary Fig. 2). To filter out unspecific or false-positive hits, a counter screen was developed and applied for testing the primary hits[30]–[32]. The assay format was identical to the primary assay besides employing a CHO cell line with inducible expression of human HDL scavenger receptor class B type I (SR-BI), an alternative scavenger receptor with low sequence and structural homology to human LOX-1 (Supplementary Fig. 1). Human SR-B1 is a cell surface glycoprotein most highly expressed in liver and steroidogenic tissues and plays a key role in mediating selective HDL cholesterol (HDL-C) uptake in the liver. Its regulation of HDL-C metabolism is believed to be relevant for cardiovascular health and the receptor was therefore chosen as a counter target. Using this single assay, we eliminated compounds that blocked both receptors presumably via an unspecific, non-target related mechanism (Supplementary Fig. 3).
A recombinant CHO-K1 cell line was generated to stably express human LOX-1 under control of a Tetracycline inducible promoter: using Gateway® Cloning (Invitrogen), the hLOX-1 cDNA was cloned into pT-Rex-DEST-30 thus generating pT-Rex-EXP-30-hLOX. The CHO-K1 T-REx host cell line was then transfected with the expression vector pT-Rex-EXP-30-hLOX. Stably transfected cells were selected by Geneticin resistance. Single cell clones expressing human LOX-1 upon induction with Doxycycline were isolated and the best clone selected by qRT-PCR and FACS analysis (CHO-Trex-hLOX1 cell clone). Cells expressing human SR-BI were prepared and used for the assay in a similar fashion (CHO-Trex-hSR-B1 cell line). […]

[1] = target: T2, human HDL scavenger receptor class B type I (SR-BI) (Homo sapiens, UniProt Q8WTV0); experiment: SR-B1 cellular oxLDL uptake counter screen (CHO-Trex-hSR-B1); format: cell-based
T2 construct: expressed in transfected cells; host or cells: CHO T-REx (CHO-Trex-hSR-B1 cell line)
T2 sequence (Q8WTV0 1-509 isoform Q8WTV0-2): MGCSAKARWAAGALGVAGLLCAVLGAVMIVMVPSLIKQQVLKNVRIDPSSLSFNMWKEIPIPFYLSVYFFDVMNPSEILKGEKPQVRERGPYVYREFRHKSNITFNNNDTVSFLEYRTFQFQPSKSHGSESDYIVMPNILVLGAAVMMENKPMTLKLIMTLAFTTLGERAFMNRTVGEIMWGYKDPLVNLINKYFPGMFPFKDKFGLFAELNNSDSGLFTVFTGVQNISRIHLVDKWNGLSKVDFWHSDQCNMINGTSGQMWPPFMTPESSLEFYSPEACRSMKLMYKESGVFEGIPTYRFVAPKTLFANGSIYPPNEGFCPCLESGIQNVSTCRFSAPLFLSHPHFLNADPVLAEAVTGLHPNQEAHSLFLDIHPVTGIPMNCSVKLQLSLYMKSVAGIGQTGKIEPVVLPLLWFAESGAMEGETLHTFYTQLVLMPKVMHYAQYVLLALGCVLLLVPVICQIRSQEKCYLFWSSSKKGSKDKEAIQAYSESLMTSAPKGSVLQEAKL
Description: To identify small molecule inhibitors of LOX-1 mediated oxLDL uptake we developed a cellular high throughput screening (HTS) assay. Small molecule compounds were screened for their ability to block the uptake of AlexaFluor594 (AF594)-labeled human oxLDL into a CHO-K1 cell line with inducible expression of the human LOX-1 receptor. This readout was visualized and images were quantified by fluorescence microscopy (Fig. 1a). As positive controls, cells without induction of LOX-1 as well as a blocking anti-LOX-1 antibody[29] was used (Fig. 1b). More than one million different compounds were screened. Lead-like compounds (molecular weight above 270 Da) were tested at a concentration of 5 µg/ml, whereas a fragment subset (molecular weight below 270 Da) was tested at a tenfold higher concentration to ensure detection of more weakly active but ligand-efficient fragment-like compounds. Employing a hit criterion of lower than 50% of control, a hit rate of 2.8% was observed (Supplementary Fig. 1). These hits were further confirmed by performing two independent assay runs with fresh compound samples, resulting in a confirmation rate of 80% and a confirmed hit rate of 2.2% (Supplementary Fig. 2). To filter out unspecific or false-positive hits, a counter screen was developed and applied for testing the primary hits[30]–[32]. […]

[2] = Metabolic stability in human liver microsomes; format: in vitro ADME; conditions: in vitro clearance as % hepatic blood flow, n = 1
Procedure: (§1) The metabolic degradation of the test compound is assayed at 37 °C with microsomes. The final incubation volume of 100 µl per time point contains TRIS buffer pH 7.6 at RT (0.1 M), magnesium chloride (5 mM), microsomal protein (1 mg/ml or 0.5 mg/ml depending on species) and the test compound at a final concentration of 1 µM.
(§2) Following a short preincubation period at 37 °C, the reactions were initiated by addition of beta-nicotinamide adenine dinucleotide phosphate, reduced form (NADPH, 1 mM) and terminated by transfering an aliquot into solvent after different time points. The quenched incubations are pelleted by centrifugation (10000 g, 5 min). An aliquot of the supernatant is assayed by LC-MS/MS for the amount of parent compound. The slope of the semi logarithmic plot of the concentration-time profile determines the half-life. The clearance is calculated by upscaling considering the amount of protein in the incubation, microsomal recovery and liver weight and normalized to the hepatic blood flow of the respective species. The number of experiments for BI-0115 is n = 1.

[3] = Metabolic stability in mouse liver microsomes; format: in vitro ADME; conditions: in vitro clearance as % hepatic blood flow, n = 1
Procedure: as §1, §2

- IC50 (human LOX-1 receptor; eight independent measurements 1-8, Supplementary Table 1, read-out: IC50 on LOX-1, individual measurements): 7.55 µM and 7.15 µM and 3.34 µM and 2.01 µM and 5.85 µM and 6.95 µM and 5.11 µM and 4.97 µM
- extent of inhibition of oxLDL uptake in the cellular context (human LOX-1 receptor; in words, reply to reviewers): full inhibition
- IC50 (human LOX-1 receptor; mean, BI-0115 n = 8, BI-1580 n = 2, inhibition of AF594-oxLDL internalization, read-out: LOX-1 IC50): 5.37 µM and 5.4 µM
- IC50 (human LOX-1 receptor; single curve of Fig. 1c, n = 2 per concentration, R^2 = 0.98, read-out: IC50, representative concentration response curve): 7.2 µM
- activity in the SR-B1 assay ([1]; in words): no activity
- micr. Stab hLM [2]: 77 %QH
- micr. Stab mLM [3]: 95 %QH
Structure (SMILES): CCCN1C(=O)c2ccc(Cl)cc2Nc2ncccc21 [BI-0115]
- IC50 ([1]; eight independent measurements 1-8, Supplementary Table 2, read-out: IC50 on SR-B1, individual measurements): 88.8 µM and > 54.2 µM and > 100 µM (4×) and > 172 µM (2×)
